Data: patent publication US9546176B2, “Small molecule bicyclic and tricyclic CFTR correctors” (DISCOVERYBIOMED, INC., priority 2012, dated 2017)
Where two headings read alike, the source gives them in different places.

Target: T1, delF508-CFTR (Homo sapiens, UniProt P13569, DEL508-508)
T1 construct: endogenous in cells; host or cells: CFBE41o- human CF bronchial epithelial cells (delF508 homozygous)
Experiment: SPQ halide-sensitive fluorescence dye assay for rescue of halide efflux (8-point concentration-response)
Type: cell-based
Settings: for EC50: read-out: SPQ EC50; for potency and efficacy compared with VX-809 in SPQ assay: versus VX-809
Experimental: The method of profiling can include detecting the rescue of halide efflux from a cell. The step of detecting a rescue of halide efflux from the cell can be monitored using the halide quenched dye 6-methoxy-N-(3-sulfopropyl)-quinolinium (SPQ, Molecular Probes Inc., Eugene, Oreg.). In this method, cells are treated with a compound as described herein for a period of time (e.g., 48 hours). The rescue or correction of halide efflux is then detected using the SPQ assay with the halide dye. […] Optionally, the halide efflux is chloride efflux. The method of screening can further comprise performing the method with multiple concentrations of the compound.
The compounds were initially subjected to the SPQ halide-sensitive fluorescence dye profiling assay for rescue or correction of membrane chloride ion permeability or transport with an 8-point concentration-response curve. The EC50 values for the compounds described herein were determined using SPQ (Table 1). The ΔSPQ value was calculated by determining the difference between the maximum and minimum SPQ values for the compounds.
To perform the SPQ high throughput screening assay, CFBE41o-cells were seeded into 96-well microtiter plates and were loaded with the fluorescent halide-sensitive dye, SPQ, in serum-containing culture medium. Certain wells were loaded with known positive control corrector molecules, including the industry standard Vertex 809 (VX-809; Vertex Pharmaceuticals, Cambridge, Mass.) at 3 μM, which is the maximally effective profiling dose for VX-809. The test compounds were loaded into wells and were tested in triplicate wells at a 10 μM dose and incubated over 48 hours at room temperature. During the 48 hour period, SPQ was absorbed. Plates were washed in a sodium chloride (NaCl) based Ringer and read once over two minutes to set the baseline SPQ fluorescence activity. Then, NaCl was replaced by sodium nitrate (NaNO3) based Ringer. The plates were read twice over four minutes. The primary high throughput screen (HTS) data were analyzed to detect any function of rescued delF508-CFTR under basal conditions. The plate was read up to two times to complete the SPQ HTS assay.

T1 sequence (P13569 with tags, fused parts or gaps DEL508-508): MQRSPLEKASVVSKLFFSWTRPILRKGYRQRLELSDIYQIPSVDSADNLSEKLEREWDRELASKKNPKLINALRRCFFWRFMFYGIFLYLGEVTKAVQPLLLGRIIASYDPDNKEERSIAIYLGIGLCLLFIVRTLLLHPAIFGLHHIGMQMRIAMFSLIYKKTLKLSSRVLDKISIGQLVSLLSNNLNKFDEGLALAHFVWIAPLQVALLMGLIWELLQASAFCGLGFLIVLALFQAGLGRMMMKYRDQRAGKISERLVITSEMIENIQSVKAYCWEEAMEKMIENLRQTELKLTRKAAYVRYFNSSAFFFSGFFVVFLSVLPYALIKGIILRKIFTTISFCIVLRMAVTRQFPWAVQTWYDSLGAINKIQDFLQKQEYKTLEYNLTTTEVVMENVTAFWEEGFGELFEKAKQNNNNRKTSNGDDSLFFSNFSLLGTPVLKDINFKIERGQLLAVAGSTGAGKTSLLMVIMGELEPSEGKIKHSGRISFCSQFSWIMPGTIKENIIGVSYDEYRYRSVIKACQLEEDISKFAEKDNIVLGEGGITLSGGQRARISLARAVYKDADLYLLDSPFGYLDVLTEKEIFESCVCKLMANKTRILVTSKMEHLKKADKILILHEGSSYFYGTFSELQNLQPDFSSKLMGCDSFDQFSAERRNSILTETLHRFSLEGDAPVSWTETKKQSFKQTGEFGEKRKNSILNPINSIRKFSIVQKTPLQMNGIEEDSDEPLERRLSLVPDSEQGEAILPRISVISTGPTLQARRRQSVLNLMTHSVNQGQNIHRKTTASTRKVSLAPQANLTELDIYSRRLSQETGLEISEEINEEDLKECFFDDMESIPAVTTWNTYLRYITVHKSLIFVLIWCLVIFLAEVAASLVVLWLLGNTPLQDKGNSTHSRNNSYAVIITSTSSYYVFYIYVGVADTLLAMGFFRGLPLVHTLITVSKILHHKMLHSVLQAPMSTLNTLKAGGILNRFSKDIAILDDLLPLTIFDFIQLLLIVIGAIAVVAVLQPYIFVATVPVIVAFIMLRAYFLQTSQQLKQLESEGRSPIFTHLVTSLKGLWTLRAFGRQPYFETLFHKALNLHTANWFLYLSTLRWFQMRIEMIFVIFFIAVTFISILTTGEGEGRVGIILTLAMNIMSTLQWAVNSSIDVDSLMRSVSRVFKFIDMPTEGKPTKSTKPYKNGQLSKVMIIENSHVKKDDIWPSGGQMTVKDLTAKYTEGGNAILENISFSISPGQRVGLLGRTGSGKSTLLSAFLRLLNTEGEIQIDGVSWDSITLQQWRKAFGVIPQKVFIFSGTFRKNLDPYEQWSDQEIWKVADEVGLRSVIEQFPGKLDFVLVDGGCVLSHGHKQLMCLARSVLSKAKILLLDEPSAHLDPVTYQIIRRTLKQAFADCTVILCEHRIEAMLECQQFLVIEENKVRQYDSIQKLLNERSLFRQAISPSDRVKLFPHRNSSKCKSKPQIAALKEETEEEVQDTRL

Row | SMILES | ΔSPQ (difference between maximum and minimum SPQ values) (CFBE41o- cells, 48 h) | EC50 (CFBE41o- cells, 48 h) | potency and efficacy compared with VX-809 in SPQ assay | ΔSPQ (Trial 2) | EC50 (Trial 2)
1 | CCCn1c(=O)c2c(nc3n(-c4ccccc4C)c(C)cn23)n(C)c1=O [Compound I-14] | 8875 RFU | 18.9 µM |  |  | 
2 | C=CCn1c(C)cn2c3c(=O)n(Cc4ccccc4C)c(=O)n(C)c3nc12 [Compound I-16] | 6996 RFU | 17.7 µM |  |  | 
3 | CCn1c(=O)c2c(nc3n(-c4cccc(Cl)c4C)c(C)cn23)n(C)c1=O [Compound I-23] | 13290 RFU | 10.5 µM |  |  | 
4 | CCn1c(=O)c2c(nc3n(-c4ccccc4OC)c(C)c(C)n23)n(C)c1=O [Compound I-25] | 6949 RFU | 10.4 µM |  |  | 
5 | C/C=C/Cn1c(=O)c2c(nc3n(CCCC)c(C)cn23)n(C)c1=O [Compound I-27] | 8829 RFU | 18.4 µM |  |  | 
6 | CCn1c(=O)c2c(nc3n(C(C)c4ccccc4)c(C)cn23)n(C)c1=O (stereo not drawn) [Compound I-30] | 18574 RFU | 22.6 µM |  |  | 
7 | CCCn1c(=O)c2c(nc3n(CC(C)C)c(C)c(C)n23)n(C)c1=O [Compound I-31] | 300 RFU | 12.7 µM |  |  | 
8 | CCc1ccc(-n2c(C)c(C)n3c4c(=O)n(CCCO)c(=O)n(C)c4nc23)cc1 [Compound I-33] | 16061 RFU | 18.9 µM |  |  | 
9 | CCn1c(=O)c2c(nc3n(-c4cccc(OC)c4)c(C)cn23)n(C)c1=O [Compound I-35] | 13989 RFU | 18.1 µM |  |  | 
10 | CCCn1c(=O)c2c(nc3n(C(C)CC)c(C)cn23)n(C)c1=O (stereo not drawn) [Compound I-37] | 8170 RFU | 10.7 µM |  |  | 
11 | Cc1cc(C)cc(-n2c(C)cn3c4c(=O)n(CCCO)c(=O)n(C)c4nc23)c1 [Compound I-39] | 11432 RFU | 13 µM |  |  | 
12 | Cc1c(C)n2c3c(=O)n(CCCO)c(=O)n(C)c3nc2n1-c1ccccc1 [Compound I-41] | 11080 RFU | 20.3 µM |  |  | 
13 | CCc1ccc(-n2c(C)cn3c4c(=O)n(CCCO)c(=O)n(C)c4nc23)cc1 [Compound I-42] | 14593 RFU | 19.7 µM |  |  | 
14 | Cc1c(C)n2c3c(=O)n(CC(C)C)c(=O)n(C)c3nc2n1Cc1ccco1 [Compound I-44] | 9148 RFU | 10 µM |  |  | 
15 | CCOCCn1c(=O)c2c(nc3n(-c4ccc(OC)cc4)c(C)c(C)n23)n(C)c1=O [Compound I-45] | 5321 RFU | 23.3 µM |  |  | 
16 | CCCCn1c(C)cn2c3c(=O)n(CC(=O)OC)c(=O)n(C)c3nc12 [Compound I-46] | 5027 RFU | 10.6 µM |  |  | 
17 | Cc1c(C)n2c3c(=O)n(CCCO)c(=O)n(C)c3nc2n1Cc1ccco1 [Compound I-47] | 7294 RFU | 10.6 µM |  |  | 
18 | Cc1c(C)n2c3c(=O)n(C/C=C/c4ccccc4)c(=O)n(C)c3nc2n1CCCO [Compound I-50] | 3639 RFU | > 30 µM |  |  | 
19 | CCCCn1c(=O)c2c(nc3n(CCN4CCOCC4)c(C)c(C)n23)n(C)c1=O [Compound I-51] | 9639 RFU | > 30 µM |  |  | 
20 | C/C=C/Cn1c(=O)c2c(nc3n(Cc4ccco4)c(C)cn23)n(C)c1=O [Compound I-52] | 6282 RFU | > 30 µM |  |  | 
21 | C/C=C/Cn1c(=O)c2c(nc3n2CCN3Cc2ccco2)n(C)c1=O [Compound I-53] | 6050 RFU | 11 µM |  |  | 
22 | CCn1c(=O)c2c(nc3n2CCN3Cc2ccco2)n(C)c1=O [Compound I-54] | 3397 RFU | > 30 µM |  |  | 
23 | CC(C)CCn1c(=O)c2c(nc3n2CCN3Cc2ccco2)n(C)c1=O [Compound I-55] | 4315 RFU | > 30 µM |  |  | 
24 | Cn1c(=O)n(Cc2ccccc2)c(=O)c2c1nc1oc(C(C)(C)C)cn12 [Compound II-2] | 13312 RFU | 10.4 µM | superior potency and efficacy to VX-809 |  | 

These reach a lower EC50 (CFBE41o- cells, 48 h). Values come first.

Row | ΔSPQ (difference between maximum and minimum SPQ values) (CFBE41o- cells, 48 h) | EC50 (CFBE41o- cells, 48 h) | potency and efficacy compared with VX-809 in SPQ assay | ΔSPQ (Trial 2) | EC50 (Trial 2) | SMILES
25 | 10298 RFU | 9.6 µM |  |  |  | CCn1c(=O)c2c(nc3n(-c4cccc(OC)c4)c(C)c(C)n23)n(C)c1=O [Compound I-29]
26 | 12347 RFU | 9.5 µM |  |  |  | CCOCCn1c(=O)c2c(nc3n2CCN3c2cc(C)ccc2C)n(C)c1=O [Compound I-40]
27 | 7073 RFU | 9.4 µM |  |  |  | C=CCn1c(C)cn2c3c(=O)n(Cc4cccc(C)c4)c(=O)n(C)c3nc12 [Compound I-21]
28 | 6131 RFU | 9 µM |  |  |  | Cc1cc(C)cc(-n2c(C)cn3c4c(=O)n(C)c(=O)n(C)c4nc23)c1 [Compound I-13]
29 | 9652 RFU | 9 µM |  |  |  | CCC(C)n1c(C)c(C)n2c3c(=O)n(CC(=O)OC)c(=O)n(C)c3nc12 (stereo not drawn) [Compound I-49]
30 | 3733 RFU | 8.8 µM |  |  |  | CCCn1c(=O)c2c(nc3n(-c4ccccc4OC)c(C)c(C)n23)n(C)c1=O [Compound I-17]
31 | 3935 RFU | 8.6 µM | superior potency and efficacy to VX-809 | (Trial 2: 4413) RFU | 12.7 µM | CCn1c(=O)c2c(nc3oc(C(C)(C)C)cn32)n(C)c1=O [Compound II-3]
32 | 3361 RFU | 8.4 µM |  |  |  | CCC(C)n1c(C)c(C)n2c3c(=O)n(CC)c(=O)n(C)c3nc12 (stereo not drawn) [Compound I-58]
33 | 4000 RFU | 7.9 µM |  |  |  | CCn1c(=O)c2c(nc3n(-c4ccccc4C)c(C)c(C)n23)n(C)c1=O [Compound I-57]
34 | 8563 RFU | 7.8 µM |  |  |  | C=CCn1c(=O)c2c(nc3n(CC(C)C)c(C)c(C)n23)n(C)c1=O [Compound I-38]
35 | 5235 RFU | 7.1 µM |  |  |  | CCCn1c(=O)c2c(nc3n(-c4ccccc4O)c(C)c(C)n23)n(C)c1=O [Compound I-18]
36 | 3375 RFU | 7.1 µM |  |  |  | CCn1c(=O)c2c(nc3n(Cc4ccco4)c(C)c(C)n23)n(C)c1=O [Compound I-36]
37 | 8993 RFU | 6.3 µM |  |  |  | C=CCn1c(C)cn2c3c(=O)n(Cc4ccc(F)cc4)c(=O)n(C)c3nc12 [Compound I-22]
38 | 5708 RFU | 6.1 µM |  |  |  | C=CCn1c(=O)c2c(nc3n(-c4cccc(C)c4)c(C)c(C)n23)n(C)c1=O [Compound I-15]
39 | 9486 RFU | 4.6 µM | superior potency and efficacy to VX-809 |  |  | CCCn1c(=O)c2c(nc3n(Cc4ccccc4)c(C)c(C)n23)n(C)c1=O [Compound I-34]
40 | 9362 RFU | 3.8 µM |  |  |  | C=CCn1c(=O)c2c(nc3n(-c4ccccc4C)c(C)c(C)n23)n(C)c1=O [Compound I-20]
41 | 5227 RFU | 3.7 µM |  |  |  | CCCn1c(C)cn2c3c(=O)n(Cc4cccc(C)c4)c(=O)n(C)c3nc12 [Compound I-24]
42 | 9439 RFU | 3.4 µM |  |  |  | C=CCn1c(=O)c2c(nc3n(C(C)c4ccccc4)c(C)c(C)n23)n(C)c1=O (stereo not drawn) [Compound I-43]
43 | 2989 RFU | 3.3 µM |  |  |  | CCCn1c(=O)c2c(nc3n(Cc4ccco4)c(C)c(C)n23)n(C)c1=O [Compound I-32]
44 | 5300 RFU | 3.3 µM |  |  |  | Cc1c(C)n2c3c(=O)n(CCCO)c(=O)n(C)c3nc2n1CCc1ccccc1 [Compound I-48]
45 | 2058 RFU | 3.2 µM |  |  |  | C/C=C/Cn1c(=O)c2c(nc3n(-c4ccccc4O)c(C)c(C)n23)n(C)c1=O [Compound I-19]
46 | 4090 RFU | 3.1 µM |  |  |  | C=CCn1c(=O)c2c(nc3n(-c4ccc(OC)cc4)c(C)c(C)n23)n(C)c1=O [Compound I-26]
47 | 1344 RFU | 3 µM |  |  |  | CCCCn1c(=O)c2c(nc3n(CCO)c(C)cn23)n(C)c1=O [Compound I-28]
48 | 2183 RFU | 0.2 µM | superior potency and efficacy to VX-809 |  |  | C/C=C/Cn1c(=O)c2c(nc3n(C(C)CC)c(C)c(C)n23)n(C)c1=O (stereo not drawn) [Compound I-56]
